Measured values: patent US20020037931A1, “Substituted nitrated catechols, their use in the treatment of some central and peripheral nervous system disorders and pharmaceutical compositions containing them” (priority 2000, published 2002)

Tests used:
COMT [1] = assay: Ex vivo brain COMT activity after administration by gastric tube; format: in vivo, rat; conditions: for COMT activity (% of control), Brain: rat brain homogenate; for inhibitory profile brain COMT versus liver COMT (in words) / inhibition of brain COMT (in words): after oral administration; for inhibitory profile brain COMT versus liver COMT (in words) / access to the brain / activity in the periphery (in words) / inhibition of brain COMT (in words): rat; for inhibitory profile brain COMT versus liver COMT (in words): brain compared with liver; for access to the brain / activity in the periphery (in words): conclusion from ex vivo COMT inhibition
COMT [2] = molecular target: T1, COMT (Homo sapiens, UniProt P21964); assay: COMT activity in intact SK-N-SH cell monolayers; format: cell-based; conditions: SK-N-SH cells; test compound 100 nM; means±SEM, n=4-8
T1 construct: COMT activity was evaluated in cell monolayers by the ability to methylate adrenaline; host or cells: SK-N-SH cells
T1 sequence (P21964 1-271): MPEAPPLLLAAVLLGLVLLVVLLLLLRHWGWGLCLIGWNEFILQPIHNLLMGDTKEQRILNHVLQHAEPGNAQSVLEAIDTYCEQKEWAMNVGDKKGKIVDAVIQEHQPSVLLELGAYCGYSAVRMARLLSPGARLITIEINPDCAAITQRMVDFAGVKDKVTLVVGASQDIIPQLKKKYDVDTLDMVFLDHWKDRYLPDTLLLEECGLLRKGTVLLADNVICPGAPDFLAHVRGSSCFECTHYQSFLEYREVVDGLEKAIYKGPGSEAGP

COMT [3] = assay: COMT activity (methylation of adrenaline to metanephrine) in rat liver homogenates; format: biochemical; conditions: rat liver homogenate; test compound 3 μM; means±SEM, n=4-8
COMT [4] = assay: Ex vivo liver COMT activity after administration by gastric tube; format: in vivo; conditions: rat liver homogenate
COMT [5] = assay: COMT activity (methylation of adrenaline to metanephrine) in rat brain homogenates; format: biochemical; conditions: rat brain homogenate; test compound 100 nM; means±SEM, n=4-8
[6] = 0.5 h after administration by gastric tube
[7] = 1 h after administration by gastric tube
[8] = 3 h after administration by gastric tube
[9] = 6 h after administration by gastric tube
[10] = 9 h after administration by gastric tube

Structure (SMILES)	COMT activity (% of control), Brain (COMT [1]; [6])	COMT activity (% of control), Brain (COMT [1]; [7])	COMT activity (% of control), Brain (COMT [1]; [8])	COMT activity (% of control), Brain (COMT [1]; [9])	COMT activity (% of control), Brain (COMT [1]; [10])	inhibitory profile brain COMT versus liver COMT (in words) (COMT [1])	access to the brain / activity in the periphery (in words) (COMT [1])	COMT activity, SK-N-SH (% of control) (COMT [2])	COMT activity, Liver (% of control) (COMT [3])	COMT activity (% of control), Liver (COMT [4]; [6])	COMT activity (% of control), Liver (COMT [4]; [7])	COMT activity (% of control), Liver (COMT [4]; [8])	COMT activity (% of control), Liver (COMT [4]; [9])	COMT activity (% of control), Liver (COMT [4]; [10])	COMT activity, Brain (% of control) (COMT [5])	inhibition of brain COMT (in words) (COMT [1])
O=C(c1ccccc1)c1ccc(O)c(O)c1[N+](=O)[O-] [Compound 5, (3,4-Dihydroxy-2-nitro-phenyl)-phenyl-methanone]	12.2 ± 0.3 % of control	25.5 ± 1.8 % of control	52.2 ± 2.3 % of control	92.5 ± 7.9 % of control	102.3 % of control	much more potent as a peripheral COMT inhibitor than in brain	limited access to the brain	2 ± 0 % of control	0.3 ± 0.1 % of control	2.1 ± 0.5 % of control	26.5 ± 1.3 % of control	52.1 ± 2.6 % of control	79.0 ± 14.8 % of control	108.9 % of control	6 ± 1 % of control	
CCCC(=O)Oc1ccc(C(=O)c2ccccc2)c([N+](=O)[O-])c1OC(=O)CCC [Compound 20, Butyric Acid, 3-Benzoyl-6-butyryloxy-2-nitro-phenyl Ester]	25.8 ± 4.3 % of control	31.4 ± 3.0 % of control	49.4 ± 5.3 % of control	81.3 ± 3.7 % of control	72.8 % of control	much more potent upon brain COMT than liver COMT	enhanced access to the brain and limited activity in the periphery	0 ± 0 % of control	0.6 ± 0.0 % of control	57.9 ± 4.7 % of control	64.4 ± 5.0 % of control	66.5 ± 7.8 % of control	94.5 ± 0.3 % of control	110.1 % of control	3 ± 0 % of control	potent inhibitors of brain COMT
O=C(Cc1ccccc1)c1ccc(O)c(O)c1[N+](=O)[O-] [Compound 24, 1-(3,4-Dihydroxy-2-nitro-phenyl)-2-phenyl ethanone]	18.7 ± 1.6 % of control	18.7 ± 0.6 % of control	37.0 ± 5.9 % of control	64.8 ± 3.7 % of control	98.4 % of control		limited access to the brain	24 ± 1 % of control	0.7 ± 0.0 % of control	6.2 ± 0.8 % of control	8.4 ± 1.6 % of control	61.9 ± 10.8 % of control	91.6 ± 8.8 % of control	125.9 % of control	7 ± 1 % of control	potent inhibitors of brain COMT
CC(=O)Oc1ccc(C(=O)CCCc2ccccc2)c([N+](=O)[O-])c1OC(C)=O [Compound 49, Acetic acid, 6-acetoxy-2-nitro-3-(4-phenyl-butyryl)-phenyl ester]								1 ± 0 % of control	1.4 ± 0.8 % of control						0 ± 0 % of control	
CCCC(=O)Oc1ccc(C(=O)CCCc2ccccc2)c([N+](=O)[O-])c1OC(C)=O [Compound 50, Acetic acid, 6-butyryloxy-2-nitro-3-(4-phenyl-butyryl)-phenyl ester]								2 ± 1 % of control	0.6 ± 0.5 % of control						0 ± 0 % of control	
CCOC(=O)Oc1ccc(C(=O)CCCc2ccccc2)c([N+](=O)[O-])c1OC(=O)OCC [Compound 51, Carbonic acid, 2-ethoxycarbonyloxy-3-nitro-4-(4-phenyl-butyryl)-phenyl ester ethyl ester]								1 ± 0 % of control	0.6 ± 0.3 % of control						0 ± 0 % of control	
